{
  "source": "patent US11279733B2",
  "about": "“Peptide antibiotics” (priority 2017, dated 2022)",
  "key": {"[1]": {"test_system": "K. pneumoniae ATCC BAA-2146, NDM-1 pos", "settings": "ATCC BAA-2146", "method": "(§1) Bacteria were either obtained from American Type Culture Collection (ATCC; Manassas, Va., USA) or independent academic clinical isolate collections, as listed in Table 18 below. Bacteria were cultured in Nutrient broth (NB; Bacto Laboratories, catalogue No. 234000) or Mueller Hinton broth (MHB; Bacto Laboratories, catalogue No. 211443) at 37° C. overnight with shaking (˜180 RPM). A sample of each culture was then diluted 50-fold in fresh MHB and incubated at 37° C. for 2-3 h with shaking (˜180 RPM). Compound stock solutions were prepared as 0.64 mg/mL or 2.56 mg/mL in water. The compounds, at twice the final desired concentration, were serially diluted 2-fold across the wells of 96-well plates (Polystyrene, Corning, catalogue No. 3370). Mid-log phase bacterial cultures (after 2-3 h incubation) were diluted to a final concentration of 1×10^6 colony forming units (CFU)/mL, and 50 μL was added to each well giving a final cell density of 5×10^5 and a compound concentration range of 32 μg/mL to 0.015 μg/mL (128-0.06 μg/mL against P. aeruginosa PA9704)."}, "[2]": {"test_system": "K. pneumoniae GN_106, PmxR", "settings": "GN 106, PmxR", "method": "as §1"}, "A. baumannii ATCC 19606": {"test_system": "A. baumannii ATCC 19606", "settings": "ATCC 19606", "method": "as §1"}, "[3]": {"test_system": "S. aureus ATCC 25923, MSSA", "settings": "ATCC 25923", "method": "as §1"}, "P. aeruginosa ATCC 27853": {"test_system": "P. aeruginosa ATCC 27853", "settings": "ATCC 27853", "method": "as §1"}, "E. coli ATCC 25922": {"test_system": "E. coli ATCC 25922", "settings": "ATCC 25922", "method": "as §1"}, "K. pneumoniae ATCC 13883": {"test_system": "K. pneumoniae ATCC 13883", "settings": "ATCC 13883", "method": "as §1"}, "A. baumannii GN_093 PmxR": {"test_system": "A. baumannii GN_093 PmxR", "settings": "GN 093 PmxR", "method": "as §1"}, "[4]": {"test_system": "K. pneumoniae ATCC 700603, MDR", "settings": "ATCC 700603", "method": "as §1"}, "[5]": {"test_system": "P. aeruginosa GN_105, PmxR", "settings": "GN 105, PmxR", "method": "as §1"}, "[6]": {"test_system": "K. pneumoniae GN_102 PmxR", "settings": "GN 102 PmxR", "method": "as §1"}, "[7]": {"test_system": "P. aeruginosa GN_043, PmxR", "method": "as §1"}},
  "note": "Like-named read-outs stand apart in the source and are kept apart here. Positions of bridges follow the written chain, without caps; N, C: chain ends. Non-standard residues stand in square brackets, D forms with d. Residues, ends and D or L forms follow the SMILES beside them. *: point of attachment. Benzoyl(4-OPh) = O=C(c1ccc(Oc2ccccc2)cc1)*; Decanoyl(3R-OH) = CCCCCCC[C@@H](O)CC(=O)*; dBip = N[C@H](Cc1ccc(-c2ccccc2)cc1)C(=O)O; X4 = CCCCCOc1ccc(C(=O)*)cc1; dDab = NCC[C@@H](N)C(=O)O; Dab = NCC[C@H](N)C(=O)O",
  "data": [
    {"smiles": "CC(C)C[C@@H]1NC(=O)[C@H](CCN)NC(=O)[C@H](CCN)NC(=O)[C@H](CC(C)C)NC(=O)[C@@H](Cc2ccccc2)NC(=O)[C@H](CCN)NC(=O)[C@@H](NC(=O)[C@@H](CCN)NC(=O)c2ccc(Oc3ccccc3)cc2)CCNC1=O", "note": "[compound 6527, Ph-4-OPhCO-D-Dab-cyc[L-Dab-L-Dab-D-Phe-L-Leu-L-Dab-L-Dab-L-Leu]] ({Benzoyl(4-OPh)}-[dDab][Dab][Dab][dF]L[Dab][Dab]L; lactam 2-C)", "values": [
      {"measurement": "MIC K. pneumoniae ATCC BAA-2146, NDM-1 pos", "setting": "[1]", "value": 16, "unit": "µg/mL"},
      {"measurement": "MIC K. pneumoniae GN_106, PmxR", "setting": "[2]", "value": ">32", "unit": "µg/mL"},
      {"measurement": "MIC A. baumannii ATCC 19606", "setting": "A. baumannii ATCC 19606", "value": ">32", "unit": "µg/mL"},
      {"measurement": "MIC S. aureus ATCC 25923, MSSA", "setting": "[3]", "value": ">32", "unit": "µg/mL"},
      {"measurement": "MIC P. aeruginosa ATCC 27853", "setting": "P. aeruginosa ATCC 27853", "value": 2, "unit": "µg/mL"},
      {"measurement": "MIC E. coli ATCC 25922", "setting": "E. coli ATCC 25922", "value": 2, "unit": "µg/mL"},
      {"measurement": "MIC K. pneumoniae ATCC 13883", "setting": "K. pneumoniae ATCC 13883", "value": 16, "unit": "µg/mL"},
      {"measurement": "MIC A. baumannii GN_093 PmxR", "setting": "A. baumannii GN_093 PmxR", "value": ">32", "unit": "µg/mL"},
      {"measurement": "MIC K. pneumoniae ATCC 700603, MDR", "setting": "[4]", "value": 16, "unit": "µg/mL"},
      {"measurement": "MIC P. aeruginosa GN_105, PmxR", "setting": "[5]", "value": 4, "unit": "µg/mL"},
      {"measurement": "MIC K. pneumoniae GN_102 PmxR", "setting": "[6]", "value": 32, "unit": "µg/mL"},
      {"measurement": "MIC P. aeruginosa GN_043, PmxR", "setting": "[7]", "value": 1, "unit": "µg/mL"}
    ]},
    {"smiles": "CCCCCOc1ccc(C(=O)N[C@H](CCN)C(=O)N[C@H]2CCNC(=O)[C@H](CC(C)C)NC(=O)[C@H](CCN)NC(=O)[C@H](CCN)NC(=O)[C@H](CC(C)C)NC(=O)[C@@H](Cc3ccccc3)NC(=O)[C@H](CCN)NC2=O)cc1", "note": "[compound 6528, 4-(pentyloxy)benzoic acid-D-Dab-cyc[L-Dab-L-Dab-D-Phe-L-Leu-L-Dab-L-Dab-L-Leu]] (X4-[dDab][Dab][Dab][dF]L[Dab][Dab]L; lactam 2-C)", "values": [
      {"measurement": "MIC K. pneumoniae ATCC BAA-2146, NDM-1 pos", "setting": "[1]", "value": 8, "unit": "µg/mL"},
      {"measurement": "MIC K. pneumoniae GN_106, PmxR", "setting": "[2]", "value": 32, "unit": "µg/mL"},
      {"measurement": "MIC A. baumannii ATCC 19606", "setting": "A. baumannii ATCC 19606", "value": ">32", "unit": "µg/mL"},
      {"measurement": "MIC S. aureus ATCC 25923, MSSA", "setting": "[3]", "value": 32, "unit": "µg/mL"},
      {"measurement": "MIC P. aeruginosa ATCC 27853", "setting": "P. aeruginosa ATCC 27853", "value": 1, "unit": "µg/mL"},
      {"measurement": "MIC E. coli ATCC 25922", "setting": "E. coli ATCC 25922", "value": 2, "unit": "µg/mL"},
      {"measurement": "MIC K. pneumoniae ATCC 13883", "setting": "K. pneumoniae ATCC 13883", "value": 8, "unit": "µg/mL"},
      {"measurement": "MIC A. baumannii GN_093 PmxR", "setting": "A. baumannii GN_093 PmxR", "value": 32, "unit": "µg/mL"},
      {"measurement": "MIC K. pneumoniae ATCC 700603, MDR", "setting": "[4]", "value": 16, "unit": "µg/mL"},
      {"measurement": "MIC P. aeruginosa GN_105, PmxR", "setting": "[5]", "value": 4, "unit": "µg/mL"},
      {"measurement": "MIC K. pneumoniae GN_102 PmxR", "setting": "[6]", "value": ">32", "unit": "µg/mL"},
      {"measurement": "MIC P. aeruginosa GN_043, PmxR", "setting": "[7]", "value": 1, "unit": "µg/mL"}
    ]},
    {"smiles": "CCCCCCC[C@@H](O)CC(=O)N[C@@H](CCN)C(=O)N[C@@H]1CCNC(=O)[C@H](CC(C)C)NC(=O)[C@H](CCN)NC(=O)[C@H](CCN)NC(=O)[C@H](CC(C)C)NC(=O)[C@@H](Cc2ccc(-c3ccccc3)cc2)NC(=O)[C@H](CCN)NC1=O", "note": "[compound 6661, 3(R)OH-nC9CO-L-Dab-cyc[D-Dab-L-Dab-D-Bip-L-Leu-L-Dab-L-Dab-L-Leu]] ({Decanoyl(3R-OH)}-[Dab][dDab][Dab][dBip]L[Dab][Dab]L; lactam 2-C)", "values": [
      {"measurement": "MIC K. pneumoniae ATCC BAA-2146, NDM-1 pos", "setting": "[1]", "value": 32, "unit": "µg/mL"},
      {"measurement": "MIC K. pneumoniae GN_106, PmxR", "setting": "[2]", "value": ">32", "unit": "µg/mL"},
      {"measurement": "MIC A. baumannii ATCC 19606", "setting": "A. baumannii ATCC 19606", "value": ">32", "unit": "µg/mL"},
      {"measurement": "MIC S. aureus ATCC 25923, MSSA", "setting": "[3]", "value": 8, "unit": "µg/mL"},
      {"measurement": "MIC P. aeruginosa ATCC 27853", "setting": "P. aeruginosa ATCC 27853", "value": 8, "unit": "µg/mL"},
      {"measurement": "MIC E. coli ATCC 25922", "setting": "E. coli ATCC 25922", "value": 32, "unit": "µg/mL"},
      {"measurement": "MIC K. pneumoniae ATCC 13883", "setting": "K. pneumoniae ATCC 13883", "value": 32, "unit": "µg/mL"},
      {"measurement": "MIC A. baumannii GN_093 PmxR", "setting": "A. baumannii GN_093 PmxR", "value": ">32", "unit": "µg/mL"},
      {"measurement": "MIC K. pneumoniae ATCC 700603, MDR", "setting": "[4]", "value": 32, "unit": "µg/mL"},
      {"measurement": "MIC P. aeruginosa GN_105, PmxR", "setting": "[5]", "value": 8, "unit": "µg/mL"},
      {"measurement": "MIC K. pneumoniae GN_102 PmxR", "setting": "[6]", "value": ">32", "unit": "µg/mL"},
      {"measurement": "MIC P. aeruginosa GN_043, PmxR", "setting": "[7]; P. aeruginosa GN_043, PmxR", "value": ">32", "unit": "µg/mL"}
    ]},
    {"smiles": "CCCCCCC[C@@H](O)CC(=O)N[C@H](CCN)C(=O)N[C@H]1CCNC(=O)[C@H](CC(C)C)NC(=O)[C@H](CCN)NC(=O)[C@H](CCN)NC(=O)[C@H](CC(C)C)NC(=O)[C@@H](Cc2ccccc2)NC(=O)[C@H](CCCNC(=N)N)NC1=O", "note": "[compound 8634, 3(R)OH-nC9CO-D-Dab-cyc[L-Dab-L-Arg-D-Phe-L-Leu-L-Dab-L-Dab-L-Leu]] ({Decanoyl(3R-OH)}-[dDab][Dab]R[dF]L[Dab][Dab]L; lactam 2-C)", "values": [
      {"measurement": "MIC, K. pneumoniae ATCC BAA-2146, NDM-1 pos", "setting": "[1]", "value": 8, "unit": "µg/mL"},
      {"measurement": "MIC, K. pneumoniae Cl 138-16347-20362, PmxR", "setting": "[2]", "value": 8, "unit": "µg/mL"},
      {"measurement": "MIC, A. baumannii ATCC 19606", "setting": "A. baumannii ATCC 19606", "value": 16, "unit": "µg/mL"},
      {"measurement": "MIC, S. Aureus ATCC 25923, MSSA", "setting": "[3]", "value": 16, "unit": "µg/mL"},
      {"measurement": "MIC, P. aeruginosa ATCC 27853", "setting": "P. aeruginosa ATCC 27853", "value": 4, "unit": "µg/mL"},
      {"measurement": "MIC, E. coli ATCC 25922", "setting": "E. coli ATCC 25922", "value": 8, "unit": "µg/mL"},
      {"measurement": "MIC, K. pneumoniae ATCC 13883", "setting": "K. pneumoniae ATCC 13883", "value": 8, "unit": "µg/mL"},
      {"measurement": "MIC, A. baumannii Cl Ptyela 10073 4512:2, PmxR", "setting": "A. baumannii GN_093 PmxR", "value": 32, "unit": "µg/mL"},
      {"measurement": "MIC, K. pneumoniae ATCC 700603, MDR", "setting": "[4]", "value": 4, "unit": "µg/mL"},
      {"measurement": "MIC, P. aeruginosa PA9704, PmxR", "setting": "[5]", "value": 4, "unit": "µg/mL"},
      {"measurement": "MIC, K. pneumoniae Cl Koprana 10065 0661:1, PmxR", "setting": "[6]", "value": 4, "unit": "µg/mL"},
      {"measurement": "MIC, P. aeruginosa FADDI-PA070, PmxR", "setting": "[7]; Table 5, polymyxin-resistant", "value": 2, "unit": "µg/mL"}
    ]}
  ]
}
